{
  "source": "patent US8603483B2",
  "about": "“Anti-integrin immunoconjugates, methods and uses” (Janssen Biotech, Inc., priority 2004, dated 2013)",
  "key": {"alphaVbeta3": {"target": "alphaVbeta3 (Homo sapiens, UniProt P05106+P06756, V783I)", "sequence (P06756 31-889 V783I limits assumed)": "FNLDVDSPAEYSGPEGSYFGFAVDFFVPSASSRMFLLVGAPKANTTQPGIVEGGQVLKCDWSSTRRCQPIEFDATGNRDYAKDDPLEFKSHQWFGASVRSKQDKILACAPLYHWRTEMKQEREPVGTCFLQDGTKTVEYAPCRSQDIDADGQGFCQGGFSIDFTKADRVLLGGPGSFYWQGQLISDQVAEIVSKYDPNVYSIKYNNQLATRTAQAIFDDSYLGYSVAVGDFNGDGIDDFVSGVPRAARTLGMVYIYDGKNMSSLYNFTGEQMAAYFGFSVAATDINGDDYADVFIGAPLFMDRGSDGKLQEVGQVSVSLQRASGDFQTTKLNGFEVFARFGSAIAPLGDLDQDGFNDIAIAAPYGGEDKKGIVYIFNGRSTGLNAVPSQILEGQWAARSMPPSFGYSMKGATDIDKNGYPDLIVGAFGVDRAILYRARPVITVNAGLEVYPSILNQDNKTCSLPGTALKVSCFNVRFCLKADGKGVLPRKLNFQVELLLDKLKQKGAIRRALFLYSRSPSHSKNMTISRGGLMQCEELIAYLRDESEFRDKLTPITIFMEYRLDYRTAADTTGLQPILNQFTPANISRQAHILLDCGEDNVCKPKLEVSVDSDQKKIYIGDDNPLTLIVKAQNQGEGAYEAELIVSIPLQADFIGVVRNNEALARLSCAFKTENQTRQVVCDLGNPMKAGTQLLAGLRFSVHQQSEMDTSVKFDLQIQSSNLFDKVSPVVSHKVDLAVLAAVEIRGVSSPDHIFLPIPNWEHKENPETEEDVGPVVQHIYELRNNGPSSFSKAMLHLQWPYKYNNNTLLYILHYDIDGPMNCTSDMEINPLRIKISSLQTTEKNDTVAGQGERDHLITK", "sequence (P06756 891-1048 limits assumed)": "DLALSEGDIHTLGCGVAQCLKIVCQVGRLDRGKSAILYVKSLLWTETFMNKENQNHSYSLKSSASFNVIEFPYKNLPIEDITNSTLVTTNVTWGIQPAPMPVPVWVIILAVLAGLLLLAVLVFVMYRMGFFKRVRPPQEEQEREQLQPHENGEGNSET", "sequence (P05106 27-788)": "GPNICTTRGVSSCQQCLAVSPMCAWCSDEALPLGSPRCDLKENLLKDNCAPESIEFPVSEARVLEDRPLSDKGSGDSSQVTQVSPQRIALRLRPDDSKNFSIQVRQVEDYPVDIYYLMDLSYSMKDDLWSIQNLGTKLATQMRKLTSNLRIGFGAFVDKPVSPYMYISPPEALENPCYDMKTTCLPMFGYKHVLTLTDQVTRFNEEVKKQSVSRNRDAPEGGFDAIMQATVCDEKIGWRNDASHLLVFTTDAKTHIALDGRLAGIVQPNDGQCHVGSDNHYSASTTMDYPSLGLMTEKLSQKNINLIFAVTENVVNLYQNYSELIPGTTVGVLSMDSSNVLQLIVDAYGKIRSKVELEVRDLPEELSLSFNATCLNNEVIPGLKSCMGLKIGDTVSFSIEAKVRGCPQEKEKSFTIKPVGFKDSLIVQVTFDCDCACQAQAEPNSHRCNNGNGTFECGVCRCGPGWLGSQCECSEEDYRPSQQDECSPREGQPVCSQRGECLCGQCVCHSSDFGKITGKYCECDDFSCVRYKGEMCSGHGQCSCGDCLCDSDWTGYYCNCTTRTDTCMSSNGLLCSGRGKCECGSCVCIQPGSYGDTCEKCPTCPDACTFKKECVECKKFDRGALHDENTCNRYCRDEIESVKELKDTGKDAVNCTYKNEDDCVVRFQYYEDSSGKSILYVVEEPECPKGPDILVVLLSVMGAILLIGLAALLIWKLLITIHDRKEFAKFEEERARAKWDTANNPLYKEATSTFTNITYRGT", "assay": "ELISA binding of purified hybridoma antibodies to alphaVbeta3", "settings": "ELISA on alphaVbeta3", "excerpt": "Human placenta (disrupted using a meat grinder) or M21 human melanoma cells expressing the αVβ3 integrin were extracted with OTG (Octylthioglucoside Pierce) in buffered saline as described (WO0212501). These preparations were emulsified with an equal volume of complete Freund's adjuvant and used to immunize 15 to 17 week old surgically castrated male mouse (GenPharm, Foster City, Calif.) on days 0 and 14 and in incomplete Freunds on days 28, 48, and 56. Three days later splenocytes were harvested from a mouse showing a titer of 1:1280 against alphaVbeta3 using a solid phase EIA format. Fusion was carried out at a 1:1 ratio of murine myeloma cells (SP2/0) to viable spleen cells. Hybridoma supernatants were screened using the EIA microplate assay or EIA capture assay and selected antibody producing lines expanded and retested for the desired properties.\nELISA analysis confirmed that purified antibody from two hybridomas, C371A (also called Mab CNTO 95) and C372A, bind alphaVbeta3 in a concentration-dependent manner. Fifty percent binding is achieved at 0.07 and 0.7 μg/mL for C372A and CNTO 95 respectively."}, "[1]": {"system": "A375.S2 human melanoma xenografts", "assay": "Advanced s.c. A375.S2 melanoma xenograft in athymic rats, second experiment (FIG. 7)", "format": "in vivo, rat", "settings": "i.v., days 14, 16, 18, 23, 31", "method": "FIG. 7 is a graph showing the growth of human A375.S2 melanoma cells in athymic nude rats. On day 14, when the average tumor volumes reached 250 mm^3, the animals were randomly grouped and the first dose was administered. All animals were sacrificed on day 35. Tumor volumes were expressed as mean+/−SEM (n=9 or 10). The arrows indicate the days of intravenous drug administration.\n(§1) The efficacy of CNTO 364 compared to CNTO95 against advanced s.c. A375.S2 human melanoma cells was investigated. CNTO 95-DM1 was prepared by ImmunoGen, Inc. Lot #1716-74B, stock concentration: 2.59 mg/ml. 5 mg/kg of CNTO 95-DM1 is equivalent to 74 μg/kg of DM1. CNTO 95 was from Centocor, Lot #5380-027, stock concentration=20 mg/ml. Human IgG-DM1: ChromPure human IgG was from Jackson ImmunoResearch Laboratories. Human IgG-DM1 was prepared by ImmunoGen, Lot #1762-50, stock concentration 2.8 mg/ml. 5 mg/kg of this conjugate is equivalent to 76 μg/kg of DM1. Maytansine: ImmunoGen, Lot #1710-121, stock concentration=16.38 μg/ml in PBS, pH 6.5. The stock solution of Maytansine was diluted with PBS to 15 and 7.5 μg/ml. PBS: ImmunoGen, pH 6.5. A375.S2 human melanoma cells were purchased from ATCC and subpassaged and stored in frozen aliquots at Centocor Cell Biology Services.\nIn a second experiment in rats, the average tumor volumes reached to 250 mm^3 on day 14. […]"}, "αvβ5": {"target": "αvβ5 (Homo sapiens, UniProt P06756, V783I)", "sequence (P06756 31-889 V783I limits assumed)": "as the sequence (P06756 31-889 V783I limits assumed) above", "sequence (P06756 891-1048 limits assumed)": "as the sequence (P06756 891-1048 limits assumed) above", "sequence (P18084 24-799 partner)": "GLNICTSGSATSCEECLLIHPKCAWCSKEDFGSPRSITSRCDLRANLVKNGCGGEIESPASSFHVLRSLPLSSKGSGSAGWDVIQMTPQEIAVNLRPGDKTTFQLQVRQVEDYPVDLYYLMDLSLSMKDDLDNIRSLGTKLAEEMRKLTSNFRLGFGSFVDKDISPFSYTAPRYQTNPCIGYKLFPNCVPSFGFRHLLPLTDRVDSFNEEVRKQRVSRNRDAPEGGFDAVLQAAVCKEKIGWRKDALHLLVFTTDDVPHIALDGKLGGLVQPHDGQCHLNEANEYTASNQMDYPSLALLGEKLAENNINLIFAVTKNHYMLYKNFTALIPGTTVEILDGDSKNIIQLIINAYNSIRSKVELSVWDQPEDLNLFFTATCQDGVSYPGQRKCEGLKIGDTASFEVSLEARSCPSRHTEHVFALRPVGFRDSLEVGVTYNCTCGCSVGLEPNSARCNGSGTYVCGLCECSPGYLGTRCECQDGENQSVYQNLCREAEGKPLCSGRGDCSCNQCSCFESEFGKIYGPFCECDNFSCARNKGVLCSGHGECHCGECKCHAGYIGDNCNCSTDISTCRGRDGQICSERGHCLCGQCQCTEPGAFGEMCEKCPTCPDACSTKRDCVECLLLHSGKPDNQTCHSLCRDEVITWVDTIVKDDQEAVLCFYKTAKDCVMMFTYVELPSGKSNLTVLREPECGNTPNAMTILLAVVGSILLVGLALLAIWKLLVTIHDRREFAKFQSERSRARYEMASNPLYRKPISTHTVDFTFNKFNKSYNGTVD", "assay": "125-I saturation binding on αvβ5 coated plates", "method": "The binding affinity values for purified integrins were compared to binding to receptors expressed on various cell lines using 125-I CNTO 95. A375S2 and M21 cells express both αvβ3 and αvβ5, HT-29 cells express αvβ5. For comparison, other Mabs capable of binding integrins were used. The Kd was calculated from a saturation binding curve in each case using multiple replicates of multiple lots of antibody."}, "[2]": {"system": "HT29 human colon carcinoma cells", "assay": "ATPLite cytotoxicity, HT29 cells, 96 hrs", "format": "cell-based", "settings": "HT29, 96 hrs", "method": "(§2) Human HT29 human colon carcinoma and human non-small cell lung carcinoma cells A549 (ATCC) were cultured in αMEM supplemented with 10% FBS at 37° C. in the presence of 5% CO2. Cells were seeded into white 96-well tissue culture plates (5000 cells/well) in culture medium and incubated for 16 hrs. Serial dilutions of immunoconjugates were added to each appropraite wells (0-20 μg/ml). Tissue culture plates were incubated at 37° C. for 96 hrs. ATPLIte assay was performed acording manufacturer's instruction. Data was analyzed with GraphPad Prism software using non-liner regression (Table 8) to determine the concentration at half maximal cell number as measured by luminosity."}, "[3]": {"system": "A549 human non-small cell lung carcinoma cells", "assay": "ATPLite cytotoxicity, A549 cells, 96 hrs", "format": "cell-based", "settings": "A549, 96 hrs", "method": "as §2"}, "HT29 human colon tumor": {"system": "HT29 human colon tumor", "assay": "HT29 colon carcinoma xenograft in athymic rats, comparison of conjugate linkages", "format": "in vivo, rat", "method": "An advanced tumor model using subcutaneously implanted HT29 human colon tumor-derived cells in immunocompromised rats was chosen to examine tolerability and potency of various linkages used to prepare immunoconjugates of CNTO 95.\nCNTO 95-SPP-DM1 (CNTO 364), CNTO 95-SSNPB-DM4 (CNTO 365), CNTO 95-SSNPP-DM4 (CNTO 366), and the Mab F105 equivalents of these were prepared by ImmunoGen (Cambridge, Mass.). One hundred female athymic rats (4-6 weeks of age) were obtained from Harlan Laboratories.\nHuman HT29 (ATCC) were cultured in αMEM supplemented with 10% FBS at 37° C. in the presence of 5% CO2. Cells were prepared at a concentration of twenty-five million cells per ml in serum free αMEM for inoculation. Female athymic rats were inoculated with 5×10^6 HT29 cells subcutaneously (0.2 ml of 25×10^6 cells/ml) on the rear flank area (dorsal side, approximately 0.5 inches caudal to the last rib and 0.5 inches from the backbone). All rats were monitored twice per week for the appearance of tumor. The animals were stratified into 13 groups, 6 animals per group based on a mean tumor volume for each group of approximately 250 mm^3. Doses of immunoconjugates were calculated based on the contents of DM1 or DM4 in each conjugate. The L and H represent 175 and 350 μg/kg of DM1 or DM4, respectively. […] All measurements are expressed as the group mean+/−SEM (n=6)."}, "angiogenesis [4]": {"system": "angiogenesis", "assay": "Primate angiogenesis model", "format": "in vivo, cynomulgus monkeys", "settings": "stimulated by bFGF"}, "[5]": {"system": "tumor and endothelial cells", "assay": "In vitro functional assays on tumor and endothelial cells (summary)", "format": "cell-based", "excerpt": "In addition, CNTO 95 inhibited angiogenesis and tumor growth in vivo."}, "[6]": {"system": "A375.S2 human melanoma tumor", "assay": "A375.S2 human melanoma xenograft in nude rats, weekly CNTO 95", "format": "in vivo, rat", "settings": "10 mg/kg i.v. weekly, day 46, p=0.0007", "method": "FIG. 5 is a graph showing the change volume over time of a human melanoma tumor in nude rats and the effect of administering CNTO 95. Rats were inoculated subcutaneously with A375.S2 cells (3×106), and therapy with CNTO 95 or control was initiated three days later. Rats were treated with CNTO 95 or vehicle once per week at a dose of 10 mg/kg i.v. Each data point is the mean tumor volume from 9 tumor-bearing animals (±SEM).\nFor rat studies, female nude rats, aged 6-7 weeks, were purchased from Harlan. Twenty rats were inoculated s.c. with A375.S2 cells (3×10^6) in the flank region (day 1). On day 4, rats were randomly assigned to 2 groups. One group was injected i.v. with CNTO 95 (10 mg/kg in PBS), while the other group received an isotype-matched control IgG (10 mg/kg). Dosing was continued weekly thereafter until day 46 (total of 6 doses). Tumors were measured by calipers twice a week and tumor volumes calculated by the formula (length×width2)/2. Body weights were also recorded weekly.\nIn the rat, CNTO 95 is capable of blocking both rat angiogenic integrins and human tumor cell-expressed integrins. Weekly treatment of tumor-bearing nude rats with CNTO 95 at 10 mg/kg reduced tumor growth compared to the isotype-matched human IgG control MAb (FIG. 5)."}, "[7]": {"system": "A375.S2 human melanoma cells", "assay": "Advanced s.c. A375.S2 melanoma xenograft, first experiment (FIG. 6)", "format": "in vivo, athymic nude rats", "settings": "10 mg/kg i.v., tumors 250-300 mm^3 at start", "method": "as §1\nNine-week-old athymic nude rats were subcutaneously inoculated with A375.S2 human melanoma cells. On day 14, when average tumor volumes reached to 250-300 mm^3, animals were randomized to groups of 9/10 and treatment initiated. […] The arrows indicate intravenous drug administration."}, "[8]": {"system": "A375.S2 human melanoma tumor", "assay": "A375.S2 human melanoma xenograft in nude mice, CNTO 95 from day 3", "format": "in vivo, mouse", "settings": "10 mg/kg i.p. three times per week", "method": "FIG. 4 is a graph showing the change volume over time of a human melanoma tumor in nude mice and the effect of administering CNTO 95. Mice were inoculated subcutaneously with A375.S2 cells (3×10^6), and dosing with CNTO 95 or control was initiated three days later. Mice were treated with CNTO 95 or vehicle three times per week at a dose of 10 mg/kg i.p. Each data point is the mean tumor volume from 10 tumor-bearing animals (±SEM).\nAt day 26, CNTO 95 inhibited tumor growth by approximately 80% compared to tumors from control-treated animals."}, "angiogenesis [9]": {"system": "angiogenesis", "assay": "Rat Matrigel angiogenesis model", "format": "in vivo", "settings": "stimulated by bFGF and M21 melanoma cells"}},
  "data": [
    {"compound": "c7E3 IgG: anti-alphaIIbeta3 antibody", "values": [
      {"measurement": "Fifty percent (maximal) binding concentration", "setting": "alphaVbeta3", "value": 0.07, "unit": "µg/mL"}
    ]},
    {"compound": "COc1cc2cc(c1Cl)N(C)C(=O)C[C@H](OC(=O)[C@H](C)N(C)C(C)=O)[C@]1(C)O[C@H]1[C@H](C)[C@@H]1C[C@@](O)(NC(=O)O1)[C@H](OC)/C=C/C=C(\\C)C2", "note": "[Maytansine, reference compound]", "values": [
      {"measurement": "effect on xenograft tumors (control compounds)", "setting": "[1]", "value": "did not show any significant effects"}
    ]},
    {"compound": "abciximab: other Mab capable of binding integrins, used for comparison", "values": [
      {"measurement": "binding on αvβ5 coated plates", "setting": "αvβ5", "value": "no binding and no dose-response"}
    ]},
    {"compound": "CNTO 365: CNTO 95 conjugated to maytansinoid DM4 with SSNPB or SPDB linker; methyl groups 0:2", "values": [
      {"measurement": "EC50, concentration at half maximal cell number", "setting": "[2]", "value": 0.24, "unit": "mg/L"},
      {"measurement": "EC50, concentration at half maximal cell number", "setting": "[3]", "value": 0.3, "unit": "mg/L"},
      {"measurement": "complete regression, animals out of 6", "setting": "HT29 human colon tumor; high dose (350 microgm/kg of DM4), single injection", "value": 4},
      {"measurement": "regressed preformed colon tumors, animals out of 6", "setting": "HT29 human colon tumor; low dose (175 microgm/kg of DM4), Day 7 and Day 21", "value": 2}
    ]},
    {"compound": "CNTO 95: fully human anti-alphaV integrin monoclonal antibody, human variable and IgG1 kappa constant regions", "values": [
      {"measurement": "effect on xenograft tumors (control compounds)", "setting": "[1]", "value": "did not show any significant effects"},
      {"measurement": "effect on angiogenesis", "setting": "angiogenesis [4]", "value": "blocked angiogenesis"},
      {"measurement": "effect on adhesion, migration, proliferation and invasion", "setting": "[5]", "value": "inhibited adhesion, migration, proliferation and invasion"},
      {"measurement": "final tumor size vs isotype-matched control IgG", "setting": "[6]", "value": "significant reduction in final tumor size"},
      {"measurement": "effect on tumor growth / average tumor volume", "setting": "[7]", "value": "had no effect"},
      {"measurement": "inhibition of tumor growth compared to control-treated animals", "setting": "[8]; day 26", "value": "approximately 80%"},
      {"measurement": "tumor growth vs control", "setting": "[8]; day 26, P=0.0005", "value": "significantly inhibited growth of tumors"},
      {"measurement": "effect on angiogenesis", "setting": "angiogenesis [9]", "value": "blocked angiogenesis"}
    ]}
  ]
}
